Assay results taken from article PMC10981727, “Design, synthesis and bioactivity study on oxygen-heterocyclic-based pyran analogues as effective P-glycoprotein-mediated multidrug resistance in MCF-7/ADR cell” (Scientific Reports, 2024).
Where two headings read alike, the source gives them in different places. Values belong to the molecule of their own block, whether it stands above or below them.

Tests used:
[1] = tested on: MCF-7/ADR cells; experiment: Annexin V-FITC/PI apoptosis assay; type: cell-based; conditions: treated at IC50 value for 24 h; for necrosis (upper left quadrant, PI / Annexin V-FITC plot): control 1.56%; for total apoptosis percentage: equals sum of the three quadrants
Procedure: P-gp inhibits apoptosis by preventing the release of cytochrome c which is mediated by the intrinsic mitochondrial pathway. Also, blocking cell cycle progression, inducing apoptosis or the combined effect of both are one of the indicated mechanisms for the cytotoxic effect of the chemotherapeutic drugs. Therefore, further assessment of the pivotal relationship between the newly synthesized MCF-7/ADR anticancer compounds and apoptosis was measured by the means of the Annexin V/PI double staining flow cytometric assay.
Apoptosis assay was performed with an Annexin V-FITC/PI double staining apoptosis detection kit (K101, Biovison) using a flow cytometer. […] Cells were harvested by the trypsinization, washed twice with 4 °C PBS, and re-suspended in the binding buffer. Subsequently, the Annexin V-FITC and Propidium iodide (PI) solutions were added to stain the cells before the analysis by the flow cytometry, where a minimum of 10,000 cells per sample were acquired. The Annexin V-FITC binding (FL1) and PI (FL2) were analyzed, using the Cell Quest Pro software (BD Biosciences).

[2] = tested on: MCF-7/ADR; experiment: MTT viability assay, resistant MCF-7/ADR; type: cell-based; conditions: for IC50: MTT, 24 h exposure, mean ± standard error; for activity against MCF-7/ADR cell (in words): with regard to Doxorubicin
Procedure: (§1) Using concentrations ranging from 0 to 100 μM against PC-3, SKOV-3, and HeLa cancerogenic cell lines, target compounds 4a–l were assessed for their anticancer activities[53] and compared with the commercially available Vinblastine and Doxorubicin. […] The compounds with the greatest cytotoxic activity against the cancerous cell lines PC-3, SKOV-3, and HeLa were 4a–c, 4g, and 4h. […] We selected the cytotoxic active compounds 4a–c, 4g, and 4h to be evaluated against MCF-7/ADR cancerogenic and HFL-1 and WI-38 non-cancerogenic cell lines (Figs. 7, 8 and Table 1).
(§2) The tumor cell lines (PC-3, SKOV-3, and HeLa), resistant cell strains (MCF-7/ADR) and the normal cell lines, (HFL-1, WI-38) were obtained from the American Type Culture Collection (ATCC, Rockville, MD, USA).
(§3) The tumor cell lines were suspended in medium at concentration 5 × 10^4 cells well^−1 in Corning® 96-well tissue culture plates and then incubated for 24 h. The tested compounds with concentrations ranging from 0 to 100 μM were then added into 96-well plates (six replicates) to achieve six different concentrations for each compound. Six vehicle controls with media or 0.5% DMSO were run for each 96 well plate as a control. After incubating for 24 h, the numbers of viable cells were determined by the MTT test[53]. Briefly, the media was removed from the 96 well plates and replaced with 100 μl of fresh culture RPMI 1640 medium without phenol red then 10 μl of the 12 mM MTT stock solution (5 mg of MTT in 1 ml of PBS) to each well including the untreated controls. The 96-well plates were then incubated at 37 °C and 5% CO2 for 4 h. An 85-μl aliquot of the media was removed from the wells, and 50 μl of DMSO was added to each well and mixed thoroughly with the pipette and incubated at 37 °C for 10 min. Then, the optical density was measured at 590 nm with the microplate reader (Sunrise, TECAN, Inc, USA) to determine the number of viable cells and the percentage of viability was calculated as […] where ODt is the mean optical density of wells treated with the tested sample and ODc is the mean optical density of untreated cells. The relation between surviving cells and drug concentration is plotted to get the survival curve of each tumor cell line after treatment with the specified compound. The 50% inhibitory concentration (IC50), the concentration required to cause toxic effects in 50% of intact cells, was estimated from graphic plots of the dose response curve for each concentration.

[3] = target: T1, P-gp (Homo sapiens, UniProt P08183); experiment: cell-based
Procedure: Absorbance at 450 nm of each well was measured using Spectramax Gemini fluorescence microplate reader (Molecular Devices, Sunnyvale, CA, USA). The total content of Rhodamine in each sample was determined by comparison with a Rhodamine standard curve.

[4] = tested on: human diploid fibroblasts (WI-38); experiment: MTT viability assay, normal WI-38; type: cell-based; conditions: normal cell line, 24 h, mean ± standard error
Procedure: as §1, §2, §3

[5] = tested on: MCF-7/ADR cells; experiment: Cell cycle assay (propidium iodide flow cytometry); type: cell-based; conditions: treated at IC50 value for 24 h; for percentage of MCF-7/ADR cells in S phase (%DIP S): untreated control 29.61%
Procedure: The most powerful recently synthesized substances 4a–c on regulating cell cycle progression of MCF-7/ADR cells was analyzed by the flow cytometry, exploiting the FACS Calibers (Becton Dickinson). […] Cell cycle progression results of compounds 4a and 4b show cell cycle arrest at S phase with 41.17% and 34.62% respectively compared to 29.61% of the negative untreated control. […] Cell cycle arrest and distribution were done using Propidium Iodide Flow Cytometry Kit (ab139418, Abcam) as previously described. […] The DNA content in each cell nucleus was determined by a FACS Calibur flow cytometer (BD Biosciences, Franklin Lakes, NJ, USA).

[6] = tested on: human fetal lung (HFL-1); experiment: MTT viability assay, normal HFL-1; type: cell-based; conditions: HFL1, normal cell line, 24 h, mean ± standard error
Procedure: as §1, §2, §3

[7] = target: T1, P-gp; experiment: in vitro; conditions: MCF-7/ADR cells (cell lysate)
Procedure: (§4) The content of P-gp in the MCF-7/ADR cell lysates after incubation with varying conc. […] Absorption was recorded at 450 nm with a Spectramax Gemini fluorescence microplate reader (Molecular Devices, Sunnyvale, CA, USA)[78].

[8] = tested on: SKOV-3; experiment: MTT viability assay, SKOV-3; type: cell-based; conditions: for IC50: MTT, 24 h incubation, mean ± standard error; for times more potency than Doxorubicin, SKOV-3 / times more potency than Vinblastine, SKOV-3: ratio of IC50 values
Procedure: as §1, §2, §3

[9] = tested on: HeLa; experiment: MTT viability assay, HeLa; type: cell-based; conditions: 24 h incubation, mean ± standard error
Procedure: as §1, §2, §3

[10] = tested on: PC-3; experiment: MTT viability assay, PC-3; type: cell-based; conditions: for IC50: MTT, 24 h incubation, mean ± standard error
Procedure: as §1, §2, §3

[11] = tested on: HCT-116; design: method as in PMID 31586716; conditions: Fig. 5, 9-Br first generation derivatives; cited from earlier work
[12] = tested on: HepG-2; design: method as in PMID 31586716; conditions: Fig. 5, 9-Br first generation derivatives; cited from earlier work
[13] = tested on: MCF-7; design: method as in PMID 31586716; conditions: Fig. 5, 9-Br first generation derivatives; cited from earlier work
[14] = target: T1, P-gp
Procedure: as §4

T1 sequence (P08183 whole entry): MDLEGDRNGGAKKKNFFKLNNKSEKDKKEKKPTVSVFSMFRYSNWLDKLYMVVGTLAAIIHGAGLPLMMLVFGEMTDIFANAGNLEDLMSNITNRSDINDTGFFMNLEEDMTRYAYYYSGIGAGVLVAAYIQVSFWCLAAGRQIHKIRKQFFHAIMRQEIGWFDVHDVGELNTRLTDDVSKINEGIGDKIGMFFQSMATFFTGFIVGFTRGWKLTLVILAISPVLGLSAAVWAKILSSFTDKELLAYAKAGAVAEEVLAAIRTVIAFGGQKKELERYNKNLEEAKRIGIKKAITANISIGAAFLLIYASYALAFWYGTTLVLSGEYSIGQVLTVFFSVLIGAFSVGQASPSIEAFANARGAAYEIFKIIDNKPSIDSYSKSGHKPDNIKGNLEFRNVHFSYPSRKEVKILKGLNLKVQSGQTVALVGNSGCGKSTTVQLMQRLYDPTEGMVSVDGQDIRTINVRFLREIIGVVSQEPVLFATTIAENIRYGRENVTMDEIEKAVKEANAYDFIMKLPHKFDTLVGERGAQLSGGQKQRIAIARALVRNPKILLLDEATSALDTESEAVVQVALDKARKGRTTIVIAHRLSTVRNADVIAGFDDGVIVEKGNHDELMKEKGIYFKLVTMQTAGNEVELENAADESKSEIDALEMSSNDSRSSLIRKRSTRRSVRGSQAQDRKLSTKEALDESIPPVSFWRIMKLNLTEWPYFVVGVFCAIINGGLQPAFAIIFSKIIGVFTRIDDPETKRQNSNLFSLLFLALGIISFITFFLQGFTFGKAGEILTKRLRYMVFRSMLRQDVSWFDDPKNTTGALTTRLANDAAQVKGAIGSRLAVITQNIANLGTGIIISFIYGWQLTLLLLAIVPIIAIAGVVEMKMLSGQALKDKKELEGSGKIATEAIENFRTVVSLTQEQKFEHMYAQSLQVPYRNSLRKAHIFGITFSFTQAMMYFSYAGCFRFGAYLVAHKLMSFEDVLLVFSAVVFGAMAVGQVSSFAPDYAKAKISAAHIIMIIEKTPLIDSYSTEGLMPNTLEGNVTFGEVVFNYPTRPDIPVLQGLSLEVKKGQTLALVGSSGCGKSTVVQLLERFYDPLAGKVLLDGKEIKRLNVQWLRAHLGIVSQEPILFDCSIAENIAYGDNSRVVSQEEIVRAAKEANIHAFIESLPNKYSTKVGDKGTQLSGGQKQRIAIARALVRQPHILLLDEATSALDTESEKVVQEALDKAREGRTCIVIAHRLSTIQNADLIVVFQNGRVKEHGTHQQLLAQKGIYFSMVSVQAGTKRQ

Molecule: N#CC1=C(N)Oc2ccc3ccc(Br)cc3c2C1c1ccc(Cl)c(Cl)c1 (stereo not shown) [compound 4]
IC50 [11]: 25 µM
IC50 [12]: 470 nM
IC50 [13]: 7.61 µM

Molecule: COc1c(Br)cc(Br)cc1C1C(C#N)=C(N)Oc2ccc3ccc(Br)cc3c21 (stereo not shown) [compound 5]
IC50 [11]: 0.58 µM
IC50 [12]: 710 nM
IC50 [13]: 3.67 µM

Molecule: Doxorubicin [reference compound]
necrosis (upper left quadrant, PI / Annexin V-FITC plot) [1]: 3.33%
total apoptosis percentage [1]: 29.59%
IC50 [2]: 18.6 ± 0.2 µM
IC50 [8]: 1100 ± 200 nM
IC50 [9]: 1500 ± 300 nM
IC50 [14]: 50.9 µM
IC50 [10]: 1300 ± 300 nM

More lines, main results first:

IC50 ([2]; Homo sapiens, NCI/ADR-RES): 9.5 ± 0.3 µM
IC50 [3]: 30.9 µM
IC50 at 48 h [7]: 34.7 µM
melting point: 272 °C
IC50 ([8]; Homo sapiens, SK-OV-3): 600 ± 200 nM
IC50 ([9]; Homo sapiens, HeLa): 1500 ± 300 nM
IC50 ([10]; Homo sapiens, PC-3): 1800 ± 300 nM
Molecule: N#CC1=C(N)Oc2ccc3ccc(O)cc3c2C1c1ccc(F)cc1 (stereo not shown) [4a, 3-Amino-1-(4-fluorophenyl)-9-hydroxy-1H-benzo[f]chromene-2-carbonitrile]
necrosis (upper left quadrant, PI / Annexin V-FITC plot) [1]: 16.42%
total apoptosis percentage [1]: 31.98%
IC50 [4]: 83.7 ± 1.1 µM
percentage of MCF-7/ADR cells in S phase (%DIP S) [5]: 41.17%
IC50 [6]: 69.8 ± 0.3 µM
times more potency than Doxorubicin, SKOV-3 [8]: 1.8 times
times more potency than Vinblastine, SKOV-3 [8]: 5.3 times

IC50 ([2]; Homo sapiens, NCI/ADR-RES): 5 ± 0.1 µM
IC50 [3]: 13.3 µM
IC50 at 48 h [7]: 15.4 µM
melting point: 262 to 263 °C
IC50 ([8]; Homo sapiens, SK-OV-3): 700 ± 200 nM
IC50 ([9]; Homo sapiens, HeLa): 2400 ± 200 nM
IC50 ([10]; Homo sapiens, PC-3): 3300 ± 500 nM
Molecule: N#CC1=C(N)Oc2ccc3ccc(O)cc3c2C1c1ccccc1Cl (stereo not shown) [4b, 3-Amino-1-(2-chlorophenyl)-9-hydroxy-1H-benzo[f]chromene-2-carbonitrile]
total apoptosis percentage [1]: 43.51%
IC50 [4]: 61.1 ± 0.1 µM
percentage of MCF-7/ADR cells in S phase (%DIP S) [5]: 34.62%
IC50 [6]: 72 ± 0.2 µM
times more potency than Doxorubicin, SKOV-3 [8]: 1.6 times
times more potency than Vinblastine, SKOV-3 [8]: 4.6 times

IC50 ([2]; Homo sapiens, NCI/ADR-RES): 10.7 ± 0.3 µM
IC50 [3]: 21.5 µM
IC50 at 48 h [7]: 27.3 µM
melting point: 260 to 261 °C
IC50 ([8]; Homo sapiens, SK-OV-3): 800 ± 100 nM
IC50 ([9]; Homo sapiens, HeLa): 2100 ± 200 nM
IC50 ([10]; Homo sapiens, PC-3): 2300 ± 2200 nM
Molecule: N#CC1=C(N)Oc2ccc3ccc(O)cc3c2C1c1cccc(Cl)c1 (stereo not shown) [4c, 3-Amino-1-(3-chlorophenyl)-9-hydroxy-1H-benzo[f]chromene-2-carbonitrile]
total apoptosis percentage [1]: 36.17%
IC50 [4]: 58.2 ± 1.1 µM
percentage of MCF-7/ADR cells in G2/M phase (%DIP G2/M) ([5]; untreated control 15.01%): 29.54%
IC50 [6]: 56.5 ± 1.2 µM
times more potency than Doxorubicin, SKOV-3 [8]: 1.4 times
times more potency than Vinblastine, SKOV-3 [8]: 4 times

IC50 ([2]; Homo sapiens, NCI/ADR-RES): 30.5 ± 0.7 µM
melting point: 229 to 230 °C
IC50 ([8]; Homo sapiens, SK-OV-3): 700 ± 800 nM
IC50 ([9]; Homo sapiens, HeLa): 900 ± 1500 nM
IC50 ([10]; Homo sapiens, PC-3): 900 ± 400 nM
Molecule: COc1ccc(C2C(C#N)=C(N)Oc3ccc4ccc(O)cc4c32)cc1 (stereo not shown) [4g, 3-Amino-1-(4-methoxyphenyl)-9-hydroxy-1H-benzo[f]chromene-2-carbonitrile]
activity against MCF-7/ADR cell (in words) [2]: inactive
IC50 [4]: 84.5 ± 1.1 µM
IC50 [6]: 77.5 ± 0.1 µM
times more potency than Doxorubicin, SKOV-3 [8]: 1.6 times
times more potency than Vinblastine, SKOV-3 [8]: 4.6 times
times more potent than Doxorubicin, PC-3 ([10]; ratio of IC50 values, PC-3): 1.4 times
times more potent than Vinblastine, PC-3 ([10]; ratio of IC50 values, PC-3): 8.3 times

IC50 ([2]; Homo sapiens, NCI/ADR-RES): 19.2 ± 0.7 µM
melting point: 262 to 263 °C
IC50 ([8]; Homo sapiens, SK-OV-3): 600 ± 100 nM
IC50 ([9]; Homo sapiens, HeLa): 900 ± 400 nM
IC50 ([10]; Homo sapiens, PC-3): 700 ± 400 nM
Molecule: N#CC1=C(N)Oc2ccc3ccc(O)cc3c2C1c1ccc([N+](=O)[O-])cc1 (stereo not shown) [4h, 3-Amino-1-(4-nitrophenyl)-9-hydroxy-1H-benzo[f]chromene-2-carbonitrile]
activity against MCF-7/ADR cell (in words) [2]: inactive
IC50 [4]: 79.4 ± 0.1 µM
IC50 [6]: 84.9 ± 0.1 µM
times more potency than Doxorubicin, SKOV-3 [8]: 1.8 times
times more potency than Vinblastine, SKOV-3 [8]: 5.3 times
times more potent than Vinblastine, PC-3 ([10]; ratio of IC50 values, PC-3): 10.7 times
